Values quoted from earlier work as cited in patent US8175817B2, “Reciprocal symmetry plots as a new representation of countercurrent chromatograms” (The Board of Trustees of the University of Illinois, priority 2007, dated 2012).

Details: octanol/water; extremes of the GUESSmix compounds found in the region of optimal resolution

Log Koctanol/water: 9.52
SMILES: CC(C)CCC[C@@H](C)[C@H]1CC[C@H]2[C@@H]3CC=C4C[C@@H](O)CC[C@]4(C)[C@H]3CC[C@]12C [cholesterol]
